{"source": "patent US8945397B2", "about": "“Methods of inhibiting cyanobacteria growth by administering gramine derivatives” (priority 2012, dated 2015)", "key": {"N. closterium algae": {"test_system": "N. closterium algae", "details": "Li et al. 2009; cited from earlier work"}, "M. Aeruginosa": {"test_system": "M. Aeruginosa", "test": "Effective potency duration test in 1 L tap fresh water", "assay_type": "cell-based, Microcystis aeruginosa", "details": "about 0.05 mg/L; for OD600 after 180 days / OD600 after 15 days of M. aeruginosa growth: 1 L tap fresh water; for OD600 after 15 days of M. aeruginosa growth: unadministered control 0.119; for duration of effectiveness after administration: single administration", "experimental": "Both 5,6-dichlorogramine and 5,6,7-trichlorogramine are not only potent M. aeruginosa growth inhibitors, but they are effective inhibitors for a long period of time. In an experiment to test the effective potency duration of the compound, an equal amount of M. aeruginosa was grown in each of two containers, each containing about 1 L of fresh water from an urban sink tap. One container was administered with about 0.05 mg/L of 5,6-dichlorogramine, and the control container was not administered with any compounds. After 15 days of M. aeruginosa growth, the OD600 measurement for the unadministered M. aeruginosa freshwater sample was 0.119. The unadministered M. aeruginosa freshwater sample was discarded after 15 days. In contrast, after 15 days of M. aeruginosa growth, the OD600 measurement for the 5,6-dichlorogramine administered freshwater sample was 0.003. After 180 days, the OD600 measurement for the M. aeruginosa freshwater sample administered with 5,6-dichlorogramine remained at 0.003.\nIn another experiment, an equal amount of M. aeruginosa was grown in each of two containers, each containing about 1 L of fresh water from an urban sink tap. One container was administered with about 0.05 mg/L of 5,6,7-trichlorogramine, and the control container was not administered with any compounds. After 15 days of M. aeruginosa growth, the OD600 measurement for the unadministered M. aeruginosa freshwater sample was 0.119. The unadministered M. aeruginosa freshwater sample was discarded after 15 days. In contrast, after 15 days of M. aeruginosa growth, the OD600 measurement for the 5,6,7-trichlrogramine administered freshwater sample was 0.003. After 180 days, the OD600 measurement for the M. aeruginosa freshwater sample administered with 5,6,7-trichlorogramine remained at 0.003."}}}
{"smiles": "CN(C)Cc1c[nH]c2cc(Cl)c(Cl)cc12", "note": "[Compound No. 9, 5,6-dichlorogramine]", "values": [{"measurement": "inhibition of growth of saltwater N. closterium algae", "setting": "N. closterium algae", "result": "inhibit the growth"}, {"measurement": "OD600 after 180 days", "setting": "M. Aeruginosa", "result": 0.003}, {"measurement": "OD600 after 15 days of M. aeruginosa growth", "setting": "M. Aeruginosa", "result": 0.003}, {"measurement": "duration of effectiveness after administration", "setting": "M. Aeruginosa", "result": "at least 180 days"}]}
{"smiles": "CN(C)Cc1c[nH]c2c(Cl)c(Cl)c(Cl)cc12", "note": "[Compound No. 12, 5,6,7-trichlorogramine]", "values": [{"measurement": "OD600 after 180 days", "setting": "M. Aeruginosa", "result": 0.003}, {"measurement": "OD600 after 15 days of M. aeruginosa growth", "setting": "M. Aeruginosa", "result": 0.003}, {"measurement": "duration of effectiveness after administration", "setting": "M. Aeruginosa", "result": "at least 180 days"}]}
